38 molecules from patent US20260097037A1, “FUSED RING COMPOUND HAVING GLP-1 RECEPTOR AGONIST EFFECT” (Shionogi & Co., Ltd., priority 2022, published 2026) can be followed below.

Where two headings read alike, the source gives them in different places.

This assay has as its target T1, Human GLP-1 receptor stably expressing cells (hGLP-1R/CHO-K1 cells) (Homo sapiens, UniProt P43220).
T1 construct: expressed in transfected cells
Nature of the assay: Measurement of GLP-1 receptor agonist activity (cAMP assay). Format: cell-based. Particulars: for Emax: cAMP with 2 nM human GLP-1 (7-36) = 100%, DMSO only = 0%; for EC50: increase in cAMP concentration in hGLP-1R/CHO-K1 cells, 37° C. 1 hour. The protocol: Test Example 1: Measurement of GLP-1 Receptor Agonist Activity
Human GLP-1 receptor stably expressing cells (hGLP-1R/CHO-K1 cells) are cultured in an a-MEM medium (Sigma) containing 10% FBS (Hyclone), 2% GlutaMAX (Gibco), 1% G418 (Nacalai Tesque), and 1% Penicillin-Streptomycin Mixed Solution (Sigma) at 37° C. under 5% CO2 conditions, and recovered by treating a 10 fold diluted 5.0 g/1-trypsin/5.3 mmol/1-EDTA solution (Nacalai Tesque) and cryopreserved.
A DMSO solution containing the compound of the present invention or human GLP-1 (7-36) (Phoenix Pharmaceuticals) is dispensed into a 384-well microplate (Greiner) at 62.5 nL/well, and in addition, 400 μM Forskolin (Nacalai Tesque) is dispensed therein at 7.5 nL/well. Subsequently, the frozen GLP-1 R/CHO-K1 cells are thawed in a thermostatic bath at 37° C., suspended in HBSS buffer (GIBCO) containing 0.1% BSA (Sigma), 20 mM HEPES, 0.1 mM IBMX (Sigma), and 0.2 mM RO20-1724 (Calbiochem) at 2×10^4 cells/mL, and the cell suspension is added at 6 μL/well. The solution was incubated at 37° C. for 1 hour and intracellular cAMP concentration is measured using cAMP Gs dynamic kit (Cisbio) according to the protocol attached to the product. Specifically, a cAMP-d2/Anti-cAMP-Cryptate (1/1) mixture solution is added in a total amount of 6 μL/well, and is incubated at room temperature for 1 hour, and then, time-resolved fluorescence is measured using PHERAstar (BMG Labtech).
Assuming that the cAMP concentration when human GLP-1 (7-36) is dispensed to a final concentration of 2 nM is 100% and the cAMP concentration when only DMSO is dispensed is 0%, the 50% effective concentration (EC50) and the maximum effect (Emax) of the compound of the present invention are calculated using an increase in the cAMP concentration as an index, using TIBCO Spotfire (TIBCO Software). The dilution concentration or the dilution solvent are changed as necessary.
The compounds of the present invention were tested essentially as described above.
On the technique in general: cAMP levels reflect the balance of adenylyl cyclase and phosphodiesterase activity.

The mark [1] stands for this setting: CHO-K1, maximum effect, read-out: Emax.

T1 sequence (P43220 24-463): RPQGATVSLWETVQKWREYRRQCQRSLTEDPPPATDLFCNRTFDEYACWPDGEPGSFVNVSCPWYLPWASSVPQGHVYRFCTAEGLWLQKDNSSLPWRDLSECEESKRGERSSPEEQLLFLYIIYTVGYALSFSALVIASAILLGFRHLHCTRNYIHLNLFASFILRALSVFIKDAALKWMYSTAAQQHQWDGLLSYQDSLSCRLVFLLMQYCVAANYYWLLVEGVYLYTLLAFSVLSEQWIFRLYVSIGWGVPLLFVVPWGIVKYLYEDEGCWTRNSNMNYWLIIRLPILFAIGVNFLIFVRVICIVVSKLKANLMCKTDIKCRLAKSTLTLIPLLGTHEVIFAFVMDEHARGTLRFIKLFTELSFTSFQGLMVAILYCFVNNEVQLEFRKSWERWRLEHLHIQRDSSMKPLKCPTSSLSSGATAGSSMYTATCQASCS

Usually Emax stands for the maximal effect, on the per cent scale that the assay sets. One may read the EC50 as the concentration at which the effect is half-maximal. The low end stands for greater potency, the high end for weaker potency. The molecule `C[C@H]1c2cc(OCc3c(F)cc(F)cc3F)c(Cl)cc2CCN1Cc1nc2ccc(C(=O)O)c(F)c2n1C[C@@H]1CCO1` [Compound I-044] gave an EC50 of 0.109 nM. Under setting [1], the Emax stood at 126%.

Molecule `COc1cc(C(=O)O)cc2c1nc(CN1CCc3cc(Cl)c(OCc4cc(F)c(Cl)cc4F)nc3[C@@H]1C)n2C[C@@H]1CCO1` [Compound I-072] yielded an EC50 of 0.0274 nM. Besides, the Emax under setting [1] amounted to 106%.

As to `C[C@H]1c2cc(OCc3ccc(Cl)cc3Cl)c(C(F)F)cc2CCN1Cc1nc2ccc(C(=O)O)cc2n1C[C@@H]1CCO1` [Compound I-009], the EC50 worked out at 0.969 nM. Under setting [1], the Emax amounted to 122%.

Regarding `Cc1ccc(COc2nc3c(cc2Cl)CCN(Cc2nc4ccc(C(=O)O)cc4n2C[C@@H]2CCO2)[C@H]3C)cc1` [Compound I-018], the EC50 came out at 0.348 nM. The Emax (maximum effect) is 133%.

Consider `COc1cc(C(=O)O)cc2c1nc(CN1CCc3cc(C(F)F)c(OCc4c(F)cc(Cl)cc4F)nc3[C@@H]1C)n2C[C@@H]1CCO1` [Compound I-134], for which the EC50 amounted to 0.0104 nM. Moreover, the Emax under setting [1] turned out to be 128%.

In the case of `C[C@H]1c2nc(OCc3ccc(Cl)cc3F)c(C#N)cc2CCN1Cc1nc2c(F)cc(C(=O)O)cc2n1C[C@@H]1CCO1` [Compound I-138], the midpoint of the response, the EC50, lay at 0.119 nM. The Emax under setting [1] amounted to 128%.

Regarding `C[C@H]1c2cc(OCc3ccccc3Cl)c(C(F)F)cc2CCN1Cc1nc2ccc(C(=O)O)cc2n1C[C@@H]1CCO1` [Compound I-007], the concentration for a half-maximal effect (EC50) was found to be 7.91 nM. Also, the Emax under setting [1] was found to be 88%.

On to `C[C@H]1c2cc(OCc3ccc(Cl)cn3)c(C(F)F)cc2CCN1Cc1nc2ccc(C(=O)O)cc2n1C[C@@H]1CCO1` [Compound I-003], for which a half-maximal response (EC50) required 3.6 nM. Besides, under setting [1], the Emax was determined as 102%.

For `COc1cc(C(=O)O)cc2c1nc(CN1CCc3cc(C(F)F)c(OCc4ccc(Cl)cn4)nc3[C@@H]1C)n2C[C@@H]1CCO1` [Compound I-133], the EC50 was found to be 0.0591 nM. In addition, the Emax under setting [1] was 122%.

On to `C[C@H]1c2nc(NCc3c(F)cc(Cl)cc3F)c(C(F)(F)F)cc2CCN1Cc1nc2c(Cl)cc(C(=O)O)cc2n1C[C@@H]1CCO1` [Compound I-172], for which the EC50 came out at 0.0353 nM. For the same molecule, the Emax under setting [1] amounted to 106%.

For `COc1cc(C(=O)O)cc2c1nc(CN1CCc3cc(C(F)F)c(OCc4ccc(Cl)cc4Cl)nc3[C@@H]1C)n2C[C@@H]1CCO1` [Compound I-132], it took 0.0162 nM to reach a half-maximal effect (EC50). In addition, the Emax under setting [1] was 127%.

The molecule `C[C@H]1c2nc(OCc3ccc(Cl)cc3F)c(C(F)(F)F)cc2CCN1Cc1nc2sc(C(=O)O)cc2n1C[C@@H]1CCO1` [Compound I-049] showed a 50% effective concentration (EC50) of 0.307 nM. For the same molecule, under setting [1], the Emax is 112%.

The molecule `C[C@H]1c2nc(OCc3ccc(F)cc3)c(C(F)F)cc2CCN1Cc1nc2ccc(C(=O)O)cc2n1C[C@@H]1CCO1` [Compound I-051] yielded a concentration for a half-maximal effect (EC50) of 1.02 nM. Besides, under setting [1], the Emax was 118%.

In the case of `C[C@H]1c2nc(OCc3nc(Cl)cs3)c(C(F)(F)F)cc2CCN1Cc1nc2ccc(C(=O)O)cc2n1C[C@@H]1CCO1` [Compound I-149], the EC50 stood at 1.09 nM. The maximal effect (Emax) under setting [1] was determined as 97.7%.

For the molecule `C[C@H]1c2nc(OCc3ccc(F)cc3)c(Cl)cc2CCN1Cc1nc2ccc(C(=O)O)cc2n1C[C@@H]1CCO1` [Compound I-023], the half-maximal effective concentration (EC50) came to 0.443 nM. The Emax under setting [1] was 130%.

For `C[C@H]1c2nc(OCc3ncc(Cl)cc3Cl)c(C(F)(F)F)cc2CCN1Cc1nc2ccc(C(=O)O)cc2n1C[C@@H]1CCO1` [Compound I-106], the EC50 was found to be 0.371 nM. The Emax under setting [1] is 112%.

The molecule `C[C@H]1c2nc(OCc3ccc(Cl)cc3F)c(C#N)cc2CCN1Cc1nc2ccc(C(=O)O)cc2n1C[C@@H]1CCO1` [Compound I-136] gave an EC50 of 0.339 nM. Besides, the Emax under setting [1] is 106%.

In turn, `C[C@H]1c2cc(OCc3c(F)cc(Cl)cc3F)c(Cl)cc2CCN1Cc1nc2ccc(C(=O)O)c(F)c2n1C[C@@H]1CCO1` [Compound I-043] gave an EC50 of 0.0647 nM. Besides, under setting [1], the Emax stood at 118%.

As to `CC1c2nc(OCc3ccc(Cl)cc3F)ncc2CCN1Cc1nc2ccc(C(=O)O)cc2n1C[C@@H]1CCO1` (stereo partly shown) [Compound I-078], the EC50 stood at 14.8 nM. Also, the Emax under setting [1] was 96%.

Turning to `Cc1cc(-c2cc(C(=O)O)cc3c2nc(CN2CCc4cc(C(F)(F)F)c(OCc5ccc(Cl)cc5F)nc4[C@@H]2C)n3C[C@@H]2CCO2)on1` [Compound I-179], the half-maximal effective concentration (EC50) came to 1.46 nM. In addition, the Emax under setting [1] is 96.3%.

For `C[C@H]1c2nc(OCc3c(F)cc(Cl)cc3F)c(C(F)F)cc2CCN1Cc1nc2c(F)cc(C(=O)O)cc2n1C[C@@H]1CCO1` [Compound I-113], the EC50 came out at 0.0331 nM. The maximum response (Emax) under setting [1] stood at 116%.

Turning to `C[C@H]1c2nc(OCc3ccc(Cl)cn3)c(C(F)F)cc2CCN1Cc1nc2ccc(C(=O)O)cc2n1C[C@@H]1CCO1` [Compound I-058], the EC50 came to 0.924 nM. The Emax under setting [1] turned out to be 92.7%.

As to `COc1cc(C(=O)O)cc2c1nc(CN1CCc3cc(C#N)c(OCc4ccc(Cl)cc4)nc3[C@@H]1C)n2C[C@@H]1CCO1` [Compound I-144], it took 0.0625 nM to reach a half-maximal effect (EC50). The Emax under setting [1] was found to be 124%.

Take `COc1cc(C(=O)O)cc2c1nc(CN1CCc3cc(C(F)(F)F)c(NCc4ccc(Cl)cc4F)nc3[C@@H]1C)n2C[C@@H]1CCO1` [Compound I-150]: the EC50 came to 0.0391 nM. Further, the Emax under setting [1] was determined as 105%.

Consider `C[C@H]1c2nc(OCc3ccccc3Cl)c(C(F)F)cc2CCN1Cc1nc2ccc(C(=O)O)cc2n1C[C@@H]1CCO1` [Compound I-055], for which the EC50 amounted to 0.902 nM. Moreover, the Emax under setting [1] is 97%.

In the case of `C[C@H]1c2cc(OCc3ccc(Cl)cc3)c(C(F)F)cc2CCN1Cc1nc2ccc(C(=O)O)cc2n1C[C@@H]1CCO1` [Compound I-004], the EC50 worked out at 2.88 nM. Further, the Emax under setting [1] came to 105%.

As to `COc1cc(C(=O)O)cc2c1nc(CN1CCc3cc(C(F)F)c(OCc4ccccc4Cl)nc3[C@@H]1C)n2C[C@@H]1CCO1` [Compound I-130], the EC50 was found to be 0.108 nM. For the same molecule, the Emax under setting [1] was determined as 141%.

In turn, `C[C@H]1c2nc(OCc3c(F)cc(F)cc3F)c(C(F)F)cc2CCN1Cc1nc2ccc(C(=O)O)cc2n1C[C@@H]1CCO1` [Compound I-061] yielded an EC50 of 0.295 nM. In addition, the Emax under setting [1] stood at 101%.

`C[C@H]1c2nc(OCc3ccc(Cl)cc3F)c(C#N)cc2CCN1Cc1nc2ccc(C(=O)O)c(F)c2n1C[C@@H]1CCO1` [Compound I-137] registered an EC50 of 0.224 nM. Moreover, the Emax under setting [1] stood at 136%.

In turn, `C[C@H]1c2nc(OCc3cc(F)c(Cl)cc3F)c(C(F)F)cc2CCN1Cc1nc2c(F)cc(C(=O)O)cc2n1C[C@@H]1CCO1` [Compound I-114] displayed an EC50 of 0.0604 nM. Besides, under setting [1], the maximum response (Emax) was 113%.

`C[C@@H]1c2nc(OCc3ccc(Cl)cc3F)ncc2CCN1Cc1nc2ccc(C(=O)O)cc2n1C[C@@H]1CCO1` [Compound I-079] yielded an EC50 of 886 nM. Under setting [1], the maximal effect (Emax) amounted to 75.7%.

On to `C[C@H]1c2nc(OCc3nc4ccccc4s3)c(C(F)(F)F)cc2CCN1Cc1nc2ccc(C(=O)O)cc2n1C[C@@H]1CCO1` [Compound I-050], for which the concentration for a half-maximal effect (EC50) is 0.638 nM. In addition, the maximal effect (Emax) under setting [1] was 97%.

Take `C[C@H]1c2nc(OCc3ccc(C#N)c4occc34)c(C(F)(F)F)cc2CCN1Cc1nc2ccc(C(=O)O)cc2n1C[C@@H]1CCO1` [Compound I-165]: the EC50 stood at 0.965 nM. Further, the Emax under setting [1] was 111%.

On to `C[C@H]1c2nc(OCc3ccc(C#N)cc3F)c(Cl)cc2CCN1Cc1nc2ccc(C(=O)O)cc2n1C[C@@H]1CCO1` [Compound I-022], for which the EC50 turned out to be 0.125 nM. In addition, the Emax under setting [1] was determined as 112%.

For the molecule `COc1cc(C(=O)O)cc2c1nc(CN1CCc3cc(Cl)c(OCc4ccc(Cl)cc4F)nc3[C@@H]1C)n2C[C@@H]1CCO1` [Compound I-076], the EC50 was found to be 0.0208 nM. Also, under setting [1], the Emax stood at 122%.

As for `COc1cc(C(=O)O)cc2c1nc(CN1CCc3cc(C(F)(F)F)c4c(c3[C@@H]1C)O[C@@](C)(c1ccc(Cl)cc1F)O4)n2C[C@@H]1CCO1` [Compound I-170], the EC50 is 0.243 nM. Besides, under setting [1], the Emax is 105%.

In turn, `COc1cc(C(=O)O)cc2c1nc(CN1CCc3cc(C(F)(F)F)c(NCc4ccc(Cl)cc4)nc3[C@@H]1C)n2C[C@@H]1CCO1` [Compound I-167] came in with an EC50 of 0.052 nM. In addition, under setting [1], the Emax was 122%.

Molecule `COc1cc(C(=O)O)cc2c1nc(CN1CCc3cc(C(F)(F)F)c(OCc4cc(Cl)n(C)n4)nc3[C@@H]1C)n2C[C@@H]1CCO1` [Compound I-155] gave an EC50 of 0.87 nM. The Emax under setting [1] was 96.3%.
